Test results taken from patent US20090203877A1, “X-RAY-DENSE CONJUGATE” (Eberhard-Karls-Universitaet Tuebingen Universitaetsklinkum, priority 2006, published 2009).
“Also recorded” adds a separate entry of the source.

Tests used:
[1] = test system: human malignant U373 glioma cells; experiment: Uptake/staining of cells by FITC-labelled conjugates (fluorescence microscopy, CLSM, FACS, semi-thin sections); format: cell-based; conditions: free unbound compound incubated in combination with conjugate 3 (260 μM)
Experimental: Fluorescence was measured in a Becton Dickinson FACSCalibur. […] The investigations were performed in triplicate.
For CT and FACS human U373 glioma cells were grown under the same conditions in 75 cm^2 culture flasks (Corning Costar, Bodenheim, Germany) (70% confluency). Accutase™ (PAA laboratories, Pasching, Austria) was added to achieve detachment of the cells which were harvested and subsequently aliquoted into Eppendorf tubes (6×10^6 cells per tube). As in the investigations performed by fluorescence microscopy, the cells in the first tube served as a control (PBS only). The cells in the other tubes were incubated with 260 μM Ultravist, 260 μM TIBA in PBS and 26 μM, 260 μM and 2.6 mM conjugates 1-4 in PBS. After a 20 minute incubation period at 37° C. in an atmosphere of 5% CO2, the cells were washed three times in PBS and centrifuged at 800 rpm for 5 minutes.
The FACS analysis was performed as described under 1.4.
(§1) The human malignant U373 and LN18 glioma cells were cultivated in 75 cm^2 culture flasks (Corning Costar) (70% confluency) under the conditions as described under 1.4, detached from the flask bottom with Accutase™ (PAA Laboratories) and in the following distributed on Eppendorf tubes (Eppendorf, Hamburg, Germany) (6×10^6 per tube). The cells in the first tube serve as a control (only PBS buffer only). The cells in the other ten tubes were each incubated with benzoic acid (BA), monoiodobenzoic acid (MIBA) or diiodobenzoic acid (DIBA) alone (260 μM), conjugate 3 alone (260 μM), conjugate 3 plus either BA, MIBA or DIBA (260 μM), respectively, and the conjugates 9, 10, and 11 alone. (260 μM).
(§2) After an incubation of 20 minutes at 37° C./5% CO2 the cells were washed three times with PBS buffer and centrifuged at 800 rpm (rounds per minute) for 5 minutes. The fluorescence was measured in Becton Dickinson FACSCalibur as described under 1.4. The computer tomography was performed as described under 1.5.1. The examinations were repeated two times.
For the CT and FACS examinations human LN-18 and U373 glioma cells were cultivated in 75 cm^2 culture flasks (Corning Costar) (70% confluency) (conditions as described under 1.4). Accutase™ (PAA Laboratories) was added to detach the cells from the bottom of the culture flasks. The cells were collected and then distributed on Eppendorf tubes (6×10^6 cells per tube). The cells in the first two tubes serve as a control (in each case only PBS, LN18 and U373 glioma cells, native). The cells in the other tubes (in each case LN18 and U373 glioma cells) were incubated with a 260 μM or 2.6 mM solution of the conjugate 12 for 20 minutes at 37° C. and 5% CO2 and in the following washed for three times with PBS buffer and centrifuged for 5 minutes with 800 rpm (rounds per minute). For a small amount of the cells it was tested by the MMT test (see 1.4) how many of the cells were still viable. The computer tomography of the cell centrifuges was performed with the Somatom Sensation 16 (Siemens).
(§3) The FACS analysis was performed as described under 1.4. The assay was repeated two times.
For the CT and FACS examinations human LN18 and U373 glioma cells were cultivated in 75 cm^2 culture flasks (70% confluency) (conditions as described under section 1). Accutase™ (PAA Laboratories) was added to detach the cell from the culture bottom. The cells were collected and then distributed on Eppendorf-tubes (6×10^6 cells per tube). […] The next three tubes were used for the coincubation of the cells either with trichlorobenzoic acid (TCBA), trifluorobenzoic acid (TFBA) or tribromophenyl Isocyanat (TBPI) and the NLS-FITC-conjugate 3 (260 μM). As control cells were used which were only either incubated with CIBA, FIBA, TBPI (in each case 260 μM in PBS) or with PBS-buffer (native control) alone. […] The computer tomography and FACS analysis of the cell centrifuges were performed as described in 1.5.1 or 1.4, respectively for three times. […]

[2] = test system: human malignant LN18 glioma cells; experiment: Uptake/staining of cells by FITC-labelled conjugates (CLSM, FACS, semi-thin sections); format: cell-based; conditions: for staining rate / number of stained cells: free compound co-incubated with conjugate 3 (260 μM); for cells strongly stained by FITC, FACS histogram: free unbound compound incubated in combination with conjugate 3 (260 μM)
Experimental: as §1
as §2, with “times. […]” for “times.”
as §3
For the CT and FACS examinations human LN18 and U373 glioma cells were cultivated in 75 cm^2 culture flasks (70% confluency) (conditions as described under section 1). Accutase™ (PAA Laboratories) was added to detach the cell from the culture bottom. The cells were collected and then distributed on Eppendorf-tubes (6×10^6 cells per tube). […] The next three tubes were used for the coincubation of the cells either with trichlorobenzoic acid (TCBA), trifluorobenzoic acid (TFBA) or tribromophenyl Isocyanat (TBPI) and the NLS-FITC-conjugate 3 (260 μM). As control cells were used which were only either incubated with CIBA, FIBA, TBPI (in each case 260 μM in PBS) or with PBS-buffer (native control) alone. […] The computer tomography and FACS analysis of the cell centrifuges were performed as described in 1.5.1 or 1.4, respectively for three times.
All measurements were performed on living cells.
All measurements were performed on living cells in triplicates.
A part of the cells which were stained for the FACS analysis, was fixed by paraformaldehyl with 2% Agar, dehydrogenized in ethanol, embedded in Lowicryl K4M (Polysciences, Eppelheim, Germany) and according to the information of the manufacturer UV-polymerised at room temperature. Semi-thin sections (about 0.4 μm) were cut and evaluated by means of fluorescence microscopy.

[3] = test system: human malignant LN18 glioma cells; experiment: Cell viability / cell death (annexin-V-Alexa 568 binding, propidium iodide, FACS scatter morphology); format: cell-based; conditions: for influence on the cell viability: free compound alone, each 250 μM (FIG. 15)
Experimental: All measurements were performed on living, non-fixed cells. […] All measurements were performed on living cells. […] All measurements were performed on living cells in triplicates. […] All measurements were performed on living cells.

[4] = test system: human vascular endothelial cells; conditions: traditional contrast media; cited from earlier work
[5] = test system: human malignant U373 glioma cells; experiment: Cell viability / cell death (MTT test, propidium iodide, annexin-V-Alexa 568 binding, FACS scatter morphology); conditions: 260 μM in PBS, 20 min, substance alone
Experimental: Human malignant U373-glioma cells were grown to 70% confluency in RPMI-1640 Ready Mix Medium containing L-Glutamine and 10% FBS-Gold (PAA laboratories, Pasching, Austria) at 37° C., 5% CO2 (vol/vol), in 4-well-plates (NUNC, Wiesbaden, Germany) with about 300,000 cells pro well. […] After this, the cells were washed three times with buffer and then incubated with Ready Mix Medium again. Cell viability was then assessed by the addition of methyl-thiazoyl-tetrazolium (MTT) salt (Sigma-Aldrich, Germany) at a concentration of 15 mg/ml. After 20 minutes, the production of formazan was investigated. When blue formazan granules were detected, propidium iodine (PI) was added to the medium (1 μM PI; Molecular Probes, Eugene, Oreg., USA) to detect cells with damaged cell membranes. […] Pictures were taken with a 3-CCD color video camera (MC3254P, Sony, Japan) and the Axiovision Software (Carl Zeiss, Jena, Germany). The intensity of cell fluorescence was recorded at the exposure time necessary for the production of the fluorescence images.
After imaging, Accutase™ (PAA laboratories, Pasching, Austria) was added to the wells to achieve detachment of the cells for further FACS analysis. Fluorescence was measured in a Becton Dickinson FACSCalibur. A total of 20,000 events per sample were analyzed. The investigations were performed in triplicate.
A sample of cells from each Eppendorf tube was subjected to the MTT test (described under 1.4) to determine microscopically whether the cells were viable. In vitro CT of the cell pellets was performed with a Somatom Sensation 16 (Siemens) which is used for routine clinical investigations.
Cells were incubated for 20 minutes with each of the conjugates dissolved in 0.1% DMSO/PBS at 260 μm. The cells were also incubated with TIBA and both of the non-TIBA-containing conjugates (3 and 4) separately in 0.1% DMSO/OBS at 260 μm. Both TIBA and the conjugates were dissolved in 0.1% DMSO/PBS at 260 μm for incubation due to the insolubility of TIBA (but not the conjugates) in pure PBS. As controls, the cells were incubated with PBS alone, 0.1% DMSO/PBS alone, and TIBA alone (260 μm in 0.1% DMSO/PBS).
The detection of phosphatidyl serine in the outer membrane leaflet of apoptotic cells was performed with the Annexin-V-Alexa™-568-reagent according to manufacturer's protocol (Roche Molecular Biochemicals, Indianapolis, USA). The confocal laser-scanning microscopy was performed on an inverted LSM 510 laser-scanning microscope (Carl Zeiss, Jena, Germany) (objectives: LD Achroplan 40×0.6, Plan Neofluar 20×0.50, 40×0.75). For fluorescence excitation, the 488 nm line of an argon-ion laser and the […] line of a helium-neon laser with appropriate beam splitters and barrier filters were used for FITC and Alexa respectively. Superimposed images of FITC- and Alexa-stained samples were created by overlaying coincident views. All measurements were performed on living, non-fixed cells.
Human malignant LN18 and U373 glioma cells were cultivated in four-well plates (NUNC, Wiesbaden, Germany) (about 300,000 cells per well) as described under 1.5. […] The cells were also coincubated either with CIBA, FIBA or TBPI as well as the NLS-FITC conjugate 3 (each 260 μM). As a control cells were used which were only incubated either with CIBA, FIBA or TBPI (260 μM in PBS) alone. After the incubation the cells were washed three times with PBS and in the following again incubated in Ready Mix Medium. The FITC-labelled conjugates and the Alexa-Annexin for the detection of phosphatidylserine as a signal of the cell death were localized with the confocal laser microscopy (CLSM) as in 1.6.1. All measurements were performed on living cells.

[6] = free compound co-incubated with conjugate 3 (260 μM)
[7] = 260 μM, 20 min, substance alone

Row | Compound | staining rate / number of stained cells [2] | influence on the cell viability [3] | cell death / vitality (annexin-V-Alexa 568, propidium iodide) [3, 6] | cell death / vitality (annexin-V-Alexa 568, propidium iodide) [3, 7] | cytotoxic effects / signs of cell death [5] | other results
1 | trifluorobenzoic acid [TFBA, reference compound] | few stained cells; also recorded: did not result in any considerable change | did not result in any influence on the cell viability | remain vital; also recorded: did not result in any considerable change |  |  | cells strongly stained by FITC, FACS histogram [1]: no shift of the histogram peak to the right; cells strongly stained by FITC, FACS histogram [2]: no shift of the histogram peak to the right
2 | CNC(=O)c1c(I)c(C(=O)NCC(=O)Nc2c(I)c(C(=O)O)c(I)c(C(=O)NCCO)c2I)c(I)c(N(C)C(C)=O)c1I [ioxaglate] |  |  |  |  |  | concentration at which apoptosis is induced [4]: 250 mg iodine per millilitre
3 | tribromophenylisocyanate [TBPI] | only in the staining of the nucleus in few cells | did not result in any influence on the cell viability | without an impairment of the vitality | does not result in a cell death |  | staining rate / number of stained cells ([2]; listed as TPBI): did not result in any considerable change; cell death / vitality (annexin-V-Alexa 568, propidium iodide) ([3]; free compound co-incubated with conjugate 3 (260 μM), listed as TPBI): did not result in any considerable change
4 | trichlorobenzoic acid [TCBA, reference compound] | did not result in any considerable change | did not result in any influence on the cell viability | did not result in any considerable change |  |  | cells strongly stained by FITC, FACS histogram [1]: no shift of the histogram peak to the right; staining rate / number of stained cells ([2]; listed as trichlorobenzoic acid): only few cells stained in their nuclei; cells strongly stained by FITC, FACS histogram [2]: no shift of the histogram peak to the right; cell death / vitality (annexin-V-Alexa 568, propidium iodide) ([3]; free compound co-incubated with conjugate 3 (260 μM), listed as trichlorobenzoic acid): remain vital
5 | O=C(O)c1ccc(I)cc1 [MIBA, 4-monoiodobenzoic acid, reference compound] | did not result in a higher staining rate; also recorded: did not result to a considerable change |  | did not result in a binding of annexin-V-Alexa™ 568; also recorded: did not result to a considerable change | did not result in cytotoxic effects | did not result in cytotoxic effects | 
6 | O=C(O)c1ccccc1 [BA, benzoic acid, reference compound] | did not result to a considerable change |  | did not result to a considerable change | did not result in cytotoxic effects | did not result in cytotoxic effects | 
7 | CC(=O)Nc1c(I)c(NC(C)=O)c(I)c(C(=O)O)c1I [diatrizoate] |  |  |  |  |  | concentration at which apoptosis is induced [4]: 250 mg iodine per millilitre
8 | O=C(O)c1cc(I)ccc1I [DIBA, 2,5-diiodobenzoic acid, reference compound] | did not result in a higher staining rate; also recorded: did not result to a considerable change |  | did not result in a binding of annexin-V-Alexa™ 568; also recorded: did not result to a considerable change | did not result in cytotoxic effects | did not result in cytotoxic effects | 
